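Method: 48-hour compound exposure of cells in 96-well plates, five concentrations, linear interpolation of endpoints. GI50 marks 50% less growth. TGI is the concentration that stops growth completely.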
What was measured:
Test in all cases: NCI anticancer screen, dose series, 48 h
[1] = test system: 786-0 renal
[2] = test system: HOP-62 NSCLC
[3] = test system: HOP-92 NSCLC
[4] = test system: MCF7 breast
[5] = test system: OVCAR-3 ovarian
[6] = test system: PC-3 prostate
[7] = test system: T-47D breast
[8] = test system: U251 CNS
[9] = test system: SNB-75 CNS

| Structure (SMILES) | TGI [1] [µM] | TGI [2] [µM] | TGI [3] [µM] | TGI [4] [µM] | TGI [5] [µM] | TGI [6] [µM] | TGI [7] [µM] | TGI [8] [µM] | TGI [9] [µM] | GI50 [2] [µM] | GI50 [4] [µM] | GI50 [5] [µM] | GI50 [6] [µM] | GI50 [9] [µM] | GI50 [7] [µM] | GI50 [8] [µM] |
| --- | --- | --- | --- | --- | --- | --- | --- | --- | --- | --- | --- | --- | --- | --- | --- | --- |
| O=[N+]([O-])/C=C/c1cn(CCCCCn2cc(/C=C/[N+](=O)[O-])c3ccccc32)c2ccccc12 | 1.35 | 10.6 | 67 | 1.62 | 4.66 | 15 | > 100 | 3.89 | – | – | – | – | – | – | – | – |
| CNc1ccc(Cl)cc1S(=O)(=O)c1ccccc1[N+](=O)[O-] | > 100 | > 100 | – | > 100 | > 100 | > 100 | > 100 | > 100 | > 100 | – | – | – | – | – | – | – |
| c1ccc([P+](c2ccccc2)(c2ccccc2)c2ccc([P+](c3ccccc3)(c3ccccc3)c3ccccc3)cc2)cc1 | > 100 | > 100 | – | > 100 | > 100 | > 100 | > 100 | > 100 | > 100 | – | – | – | – | – | – | – |
| Cc1cn([C@H]2[C@@H](CO)C[C@H]2O)c(=O)[nH]c1=O | > 100 | > 100 | > 100 | > 100 | > 100 | > 100 | – | > 100 | > 100 | – | – | – | – | – | – | – |
| COc1ccc(-c2nc(-c3cnccn3)n(C3OC(CO)C(O)C(O)C3O)n2)cc1 (stereo not drawn) | > 100 | > 100 | > 100 | > 100 | > 100 | > 100 | > 100 | > 100 | > 100 | – | – | – | – | – | – | – |
| O=S(=O)(O)C1CCC(O)C2[N-]CCCC21.O=S(=O)(O)C1CCC(O)C2[N-]CCCC21.[Zn+2] (stereo not drawn) | > 100 | > 100 | > 100 | > 100 | > 100 | > 100 | > 100 | > 100 | > 100 | – | – | – | – | – | – | – |
| COC1=CC(=O)C2=C(C1=O)[C@H]1CC[C@]3(C)[C@@H](OC(C)=O)CC[C@H]3[C@@H]1CC2 | > 100 | > 100 | 24 | – | > 100 | > 100 | 49.4 | > 100 | > 100 | – | – | – | – | – | – | – |
| N#CCCC1(CCC#N)CCCCCCC(CCC#N)(CCC#N)C(O)C1O (stereo not drawn) | > 100 | > 100 | > 100 | > 100 | > 100 | > 100 | > 100 | > 100 | > 100 | – | – | – | – | – | – | – |
| CNc1ccc(S(=O)Nc2ccccc2)cc1 (stereo not drawn) | > 100 | > 100 | – | > 100 | > 100 | – | 49.5 | > 100 | – | – | – | – | – | – | – | – |
| CC(=O)O[C@H]1C(=O)N(c2cc3c4ccccc4ccc3c3ccccc23)[C@@H]1c1ccccc1 | 15.9 | 32.9 | 45.7 | > 100 | 4.86 | 65.3 | 98.6 | > 100 | 7.2 | – | – | – | – | – | – | – |
| CC(C)(C)OC(=O)N1CCc2c(n(C/C=C/c3ccccc3)[nH]c2=O)C1 | > 100 | > 100 | > 100 | > 100 | > 100 | > 100 | > 100 | > 100 | > 100 | – | – | – | – | – | – | – |
| CC/C(Cl)=N\OC(=O)Nc1ccc(F)cc1F | 8.77 | 46.1 | 4.34 | 44.9 | 31.9 | 33.3 | 15.5 | 55.6 | 47.1 | – | – | – | – | – | – | – |
| O=C1CSc2nnc(CCCCCCCCc3nnc4n3NC(=O)CS4)n2N1 | > 100 | > 100 | > 100 | > 100 | > 100 | > 100 | > 100 | > 100 | > 100 | – | – | – | – | – | – | – |
| COC(=O)c1ccc(/C=C2\CCc3ccccc3C2=O)cc1 | > 100 | > 100 | > 100 | > 100 | > 100 | > 100 | > 100 | > 100 | > 100 | – | – | – | – | – | – | – |
| C=CCOC(=O)CCCCCCCCCCCCCCCOC(=O)C1=C(CCC[C@@H](C)O[Si](C)(C)C(C)(C)C)NC(=O)N2[C@H](CC3(CC/C=C\[C@H](CC)O[Si](C(C)C)(C(C)C)C(C)C)OCCO3)CC[C@H]12 | > 100 | > 100 | 90.2 | > 100 | > 100 | > 100 | > 100 | > 100 | > 100 | – | – | – | – | – | – | – |
| CCN(CC)CCN(C)CCc1ccc(Br)cc1 | > 100 | > 100 | > 100 | > 100 | > 100 | > 100 | > 100 | > 100 | > 100 | – | – | – | – | – | – | – |
| CC1(C)CCC2(C(=O)OC3OC(CO)C(O)C(O)C3O)CCC3(CO)C(=CCC4C5(C)CC(O)C(O)C(C)(C(=O)OC6OC(CO)C(O)C(O)C6O)C5CCC43C)C2C1 (stereo not drawn) | > 100 | > 100 | > 100 | > 100 | > 100 | > 100 | > 100 | > 100 | > 100 | – | – | – | – | – | – | – |
| CC(C)CCCC(C)[C@H]1CC[C@H]2N=C(Nc3ccccc3)CCC[C@]12C (stereo partly drawn) | 3.45 | 6.12 | 9.42 | 3.57 | 6.8 | > 100 | 14.2 | 4.33 | 3.99 | – | – | – | – | – | – | – |
| CCOC(=O)/C(C#N)=C/N(CC)/N=C/c1ccccc1 | > 100 | – | > 100 | > 100 | > 100 | > 100 | > 100 | > 100 | > 100 | – | – | – | – | – | – | – |
| Oc1[nH]c2ccccc2c1/C=c1/cc2c(c(-c3ccc(C(F)(F)F)cc3)n1)=Nc1ccccc1-2 | – | 27.3 | – | 5.14 | 7.69 | 47.4 | 13.9 | 18.3 | 20.7 | 12.3 | 1.53 | 2.36 | 2.59 | 1.45 | 3.05 | 4.46 |
| COC(=O)c1c(OC)cc2cc3c(c(O)c2c1C)C(=O)C1(O)C(=O)C=C(OC)C(OC(=O)CC(C)N)=C1C3=O (stereo not drawn) | > 100 | > 100 | > 100 | 67.3 | > 100 | > 100 | > 100 | > 100 | 18 | – | – | – | – | – | – | – |
| CC1=C2C(=O)c3ccccc3C(=O)[C@H]2C[C@@H](N2CCCCCC2=O)O1 | 32.7 | 33 | 36 | – | 38.2 | 44.4 | 42.3 | 50.6 | 45.1 | – | – | – | – | – | – | – |
